Measurements as given in patent US20220233512A1, “INHIBITING AN IMMUNE RESPONSE MEDIATED BY ONE OR MORE OF TLR2, RAGE, CCR5, CXCR4 AND CD4” (priority 2020, published 2022).

Assays:
mu opiate receptor (MOR) = molecular target: T1, mu opiate receptor (MOR) (Rattus norvegicus, UniProt P33535); assay: MOR agonist activity using [35S]GTPgS binding assay in striatal membranes; assay type: biochemical; details: Series C-2 table
T1 construct: from tissue; host or cells: striatum (membrane preparation)
Summary of the method: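 Rat striatal membranes incubated 5 min at 30 °C in pH 7.5 HEPES buffer with 100 mM NaCl, 1 mM MgCl2 and 0.5 nM [35S]GTPgS, then 5 min with compound. Gαo-bound [35S]GTPgS isolated by immunoprecipitation and counted by liquid scintillation.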

[1] = test system: human astrocyte TLR2 receptors; assay: Release of pro-inflammatory cytokines from primary human astrocytes; assay type: cell-based
Procedure: A primary astrocyte culture was prepared according to the provider (Lonza). The adherent astrocytes were trypsinized by 0.25% trypsin-EDTA, then collected and sub-cultured in 12-well plate (1.2 ml/well). When the cells were 80-85% confluent, cells were treated in an incubator under 5% CO2 with 100 fM, 10 pM or 1 nM Compound C0105 immediately followed by the addition of Ab42 ([…]), LPS (1 mg/ml), LTA-SA (1 mg/ml) and PGN-SA (10 mg/ml); i.e., simultaneously adding the insulting ligand and Compound C0105 to the cells. Vehicle groups were treated with 0.1% DMSO only. Incubation continued for 24 hours post addition. Culture medium was used as the blank (non-treat) and the levels of cytokines, TNF-a, IL-6 and IL-1b in 200 ml of culture medium were determined. Each well was sampled once.
Plates were washed 3 times with ice-cold 50 mM Tris HCl (pH 7.4) and incubated at 30° C. with 200 ml medium derived from the above-mentioned conditions. […] Plates were washed twice with 200 ml ice-cold Tris HCl, pH 7.4 and the residual FITC signals were determined by multimode plate reader, DTX880 (Beckman).
A primary astrocyte culture was prepared according to the provider (Lonza). […] Culture medium was used as the blank (non-treat) and the levels of cytokines, TNF-a, IL-6 and IL-1b in 200 ml of culture medium were determined. […]

FLNA = molecular target: T2, FLNA (Mus musculus, UniProt Q8BTM8); details: 20-22 mg/kg in vivo; Ab42-infused, 3xTg AD and aged wild-type mice (untreated 5.3); Wang et al. 2017; cited from earlier work
T2 construct: pI of FLNA from the brains of naïve mice; from tissue; host or cells: mouse brain (in vivo treated animals)
T2 sequence (Q8BTM8 whole entry, the tested form may be a part): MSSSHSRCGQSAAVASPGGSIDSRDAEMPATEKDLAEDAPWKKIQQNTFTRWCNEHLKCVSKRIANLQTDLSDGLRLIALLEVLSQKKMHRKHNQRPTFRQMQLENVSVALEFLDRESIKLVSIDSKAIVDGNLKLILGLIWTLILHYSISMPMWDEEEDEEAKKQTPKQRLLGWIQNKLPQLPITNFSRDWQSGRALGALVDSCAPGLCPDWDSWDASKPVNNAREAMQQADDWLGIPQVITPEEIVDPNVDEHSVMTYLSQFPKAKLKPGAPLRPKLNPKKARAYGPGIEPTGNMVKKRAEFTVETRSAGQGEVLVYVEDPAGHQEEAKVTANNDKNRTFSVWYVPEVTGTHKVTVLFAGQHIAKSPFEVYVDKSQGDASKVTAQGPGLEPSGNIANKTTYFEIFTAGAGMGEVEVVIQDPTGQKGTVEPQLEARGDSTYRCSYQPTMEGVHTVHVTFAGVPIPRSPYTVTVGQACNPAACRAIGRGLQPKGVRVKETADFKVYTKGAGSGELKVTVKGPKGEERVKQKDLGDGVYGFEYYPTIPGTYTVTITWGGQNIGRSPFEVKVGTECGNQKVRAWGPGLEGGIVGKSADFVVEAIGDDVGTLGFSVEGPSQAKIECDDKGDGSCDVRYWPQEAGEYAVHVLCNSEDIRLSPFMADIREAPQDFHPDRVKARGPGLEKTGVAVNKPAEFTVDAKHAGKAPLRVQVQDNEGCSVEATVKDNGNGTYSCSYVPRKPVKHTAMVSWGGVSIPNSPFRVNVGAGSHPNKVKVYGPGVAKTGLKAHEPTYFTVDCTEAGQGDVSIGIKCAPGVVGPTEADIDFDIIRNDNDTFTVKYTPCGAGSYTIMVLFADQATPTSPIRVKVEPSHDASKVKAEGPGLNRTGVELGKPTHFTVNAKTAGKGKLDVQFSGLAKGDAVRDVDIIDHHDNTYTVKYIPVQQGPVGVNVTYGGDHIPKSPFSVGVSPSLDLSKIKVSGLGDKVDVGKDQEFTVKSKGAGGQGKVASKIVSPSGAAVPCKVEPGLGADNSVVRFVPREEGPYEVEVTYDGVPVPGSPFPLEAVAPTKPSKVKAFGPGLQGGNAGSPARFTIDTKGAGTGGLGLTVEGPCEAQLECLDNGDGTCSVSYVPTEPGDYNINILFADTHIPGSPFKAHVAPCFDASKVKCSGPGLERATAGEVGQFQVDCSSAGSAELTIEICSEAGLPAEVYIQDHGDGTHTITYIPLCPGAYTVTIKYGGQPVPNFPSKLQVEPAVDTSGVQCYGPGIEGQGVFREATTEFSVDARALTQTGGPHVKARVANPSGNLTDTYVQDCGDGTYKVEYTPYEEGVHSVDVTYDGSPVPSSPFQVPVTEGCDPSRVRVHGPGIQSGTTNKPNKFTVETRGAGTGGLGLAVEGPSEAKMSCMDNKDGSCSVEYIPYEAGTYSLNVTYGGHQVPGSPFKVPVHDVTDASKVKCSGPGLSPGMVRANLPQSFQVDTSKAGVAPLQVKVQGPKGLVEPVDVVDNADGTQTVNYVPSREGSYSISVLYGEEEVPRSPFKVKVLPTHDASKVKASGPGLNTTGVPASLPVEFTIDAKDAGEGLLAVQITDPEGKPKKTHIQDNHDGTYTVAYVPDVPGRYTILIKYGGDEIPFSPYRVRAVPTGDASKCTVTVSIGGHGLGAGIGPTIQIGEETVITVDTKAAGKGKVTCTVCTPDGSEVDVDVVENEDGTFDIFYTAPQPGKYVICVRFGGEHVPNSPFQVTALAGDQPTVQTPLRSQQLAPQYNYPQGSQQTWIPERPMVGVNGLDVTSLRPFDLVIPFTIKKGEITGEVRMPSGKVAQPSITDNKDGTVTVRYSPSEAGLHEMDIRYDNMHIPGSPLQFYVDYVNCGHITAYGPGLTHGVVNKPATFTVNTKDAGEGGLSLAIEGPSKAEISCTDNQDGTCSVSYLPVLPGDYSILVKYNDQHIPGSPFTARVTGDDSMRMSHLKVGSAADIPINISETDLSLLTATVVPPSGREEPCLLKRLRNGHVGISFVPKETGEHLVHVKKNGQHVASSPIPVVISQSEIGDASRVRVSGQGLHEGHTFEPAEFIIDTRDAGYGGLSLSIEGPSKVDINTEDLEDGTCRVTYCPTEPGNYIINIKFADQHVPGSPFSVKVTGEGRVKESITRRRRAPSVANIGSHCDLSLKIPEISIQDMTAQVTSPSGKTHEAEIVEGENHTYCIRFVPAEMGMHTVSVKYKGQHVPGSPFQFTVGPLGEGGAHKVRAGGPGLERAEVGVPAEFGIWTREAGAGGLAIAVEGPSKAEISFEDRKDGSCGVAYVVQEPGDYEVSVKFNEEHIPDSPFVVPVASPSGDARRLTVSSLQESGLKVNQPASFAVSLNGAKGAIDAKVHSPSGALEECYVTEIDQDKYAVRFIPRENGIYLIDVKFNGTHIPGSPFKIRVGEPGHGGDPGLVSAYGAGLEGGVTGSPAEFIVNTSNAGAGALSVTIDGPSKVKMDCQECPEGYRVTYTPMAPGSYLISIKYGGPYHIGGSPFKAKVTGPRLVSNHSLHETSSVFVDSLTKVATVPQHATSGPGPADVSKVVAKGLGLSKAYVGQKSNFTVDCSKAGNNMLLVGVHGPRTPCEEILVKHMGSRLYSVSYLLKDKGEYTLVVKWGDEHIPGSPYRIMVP

T1 sequence (P33535 whole entry): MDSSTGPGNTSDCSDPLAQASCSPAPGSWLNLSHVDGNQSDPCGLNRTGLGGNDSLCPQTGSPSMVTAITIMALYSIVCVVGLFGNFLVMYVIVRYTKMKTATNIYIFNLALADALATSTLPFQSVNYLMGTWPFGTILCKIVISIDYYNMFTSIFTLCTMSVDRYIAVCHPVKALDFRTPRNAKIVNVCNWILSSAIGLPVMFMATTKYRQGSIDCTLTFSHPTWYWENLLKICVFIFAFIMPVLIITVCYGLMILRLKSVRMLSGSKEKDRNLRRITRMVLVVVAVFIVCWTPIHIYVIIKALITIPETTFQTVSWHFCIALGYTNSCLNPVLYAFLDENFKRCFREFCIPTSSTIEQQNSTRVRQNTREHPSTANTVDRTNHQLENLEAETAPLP

With `CN1CCC2(CC1)NCC(=O)N2Cc1ccccc1` [Compound C0105M] as the molecule, how does the “MOR agonist activity ([35S]GTPgS binding to Gao)” value (“MOR agonist activity” below) (mu opiate receptor (MOR); 0.1 μM compound as agonist) read?
The value was 198.1%.

And the “MOR agonist activity” value (mu opiate receptor (MOR); 1 μM + BFNA)?
Its value is 73.1%.

What about the “MOR agonist activity” value (mu opiate receptor (MOR); 1 μM compound as agonist) of the same molecule?
Its value is 220.3%.

What about the “Ab42-induced inflammatory cytokine production (in words)” value ([1]; Ab42 exposure) of the same molecule?
Its value is “nearly abolishes this cytokine production”.

And the “Release of the three pro-inflammatory cytokines (in words)” value ([1]; LTA-SA or PGN-SA insult, human astrocytes)?
The value was “substantially inhibited the release”.

And the “pI of FLNA from brain after treatment” value (FLNA)?
The value was 5.9.
